According to ChEMBL document CHEMBL4483862, “Open-source discovery of chemical leads for next-generation chemoprotective antimalarials” (2018):

System: Plasmodium berghei
Test: Luciferase/luciferin-expressing antifolate-resistant parasites were used to infect a culture of HepG2 cells that were pre-incubated with compounds. Infected hepatocytes emit light due to the luciferase reaction. Assay results are presented as the percent inhibition of light emission compared to control. […]
Format: functional
Conditions: sporozoite; for IC90: read-out: LUCIFERASE INFECTION ASSAY - IC90
[1] = read-out: LUCIFERASE INFECTION ASSAY - IC50

Row | SMILES | IC90 [µM] | further results
1 | CS(=O)(=O)Nc1ccc(-c2csc(NC(=O)c3sc4sccc4c3Cl)n2)cc1 | 9.72 | IC50 (HEPG2TOX_HILL_SLOPE 8.43, HEPG2TOX_R_SQUARED 0.307, PBLUC_HILL_SLOPE 11.2, PBLUC_R_SQUARED 0.136, read-out: LUCIFERASE INFECTION ASSAY - IC50): 7.99 µM
2 | O=c1c2c([nH]c3c(-c4ccccc4)c(Cc4ccccc4)nn13)CCCC2 | > 9.28 | IC50 [1]: > 9.28 µM
3 | CN(C)S(=O)(=O)c1ccc2oc(SCC(=O)Nc3cc(C(C)(C)C)no3)nc2c1 | 3.96 | IC50 (HEPG2TOX_HILL_SLOPE 11.6, HEPG2TOX_R_SQUARED 0.793, PBLUC_HILL_SLOPE 13.5, PBLUC_R_SQUARED 0.437, read-out: LUCIFERASE INFECTION ASSAY - IC50): 3.36 µM
4 | COc1ccc(Nc2nccc3c2cc(-c2cccc(OC)c2)n3C)cc1 | 8.15 | IC50 (PBLUC_HILL_SLOPE 2.81, PBLUC_R_SQUARED 0.348, read-out: LUCIFERASE INFECTION ASSAY - IC50): 3.73 µM
5 | COc1ccc2cc(/C(C)=N/OC(=O)Nc3cc(Cl)cc(Cl)c3)ccc2c1 | 8.12 | IC50 [1]: 4.08 µM
6 | C/C(=N\O)c1cnc(-c2ccccc2)s1 | 14.8 | IC50 (HEPG2TOX_HILL_SLOPE 1.93, HEPG2TOX_R_SQUARED 0.937, PBLUC_HILL_SLOPE 2.91, PBLUC_R_SQUARED 0.0759, read-out: LUCIFERASE INFECTION ASSAY - IC50): 6.95 µM
7 | C/C(=N\NC(=N)N)c1ccc(Br)cc1 | > 12.9 | IC50 (HEPG2TOX_HILL_SLOPE 2.15, HEPG2TOX_R_SQUARED 0.936, PBLUC_HILL_SLOPE 0.739, PBLUC_R_SQUARED 0.608, read-out: LUCIFERASE INFECTION ASSAY - IC50): 5.11 µM
8 | COC(=O)c1ccc(=O)n(CC(=O)Nc2ccc(C(C)(C)C)cc2)c1 | > 10 | IC50 (PBLUC_HILL_SLOPE 11, PBLUC_R_SQUARED 0.594, read-out: LUCIFERASE INFECTION ASSAY - IC50): 9.09 µM
9 | N#Cc1cc(Br)c(OCc2c(F)cccc2Cl)c(Br)c1 | 6.23 | IC50 (HEPG2TOX_HILL_SLOPE 16.7, HEPG2TOX_R_SQUARED 0.384, PBLUC_HILL_SLOPE 6.36, PBLUC_R_SQUARED 0.0513, read-out: LUCIFERASE INFECTION ASSAY - IC50): 4.41 µM
10 | O=C(Nc1ccccc1)c1ccc(CN2CCC(O)CC2)cc1 | > 10 | IC50 (FFLUC_HILL_SLOPE 0.964, FFLUC_R_SQUARED 0.857, PBLUC_HILL_SLOPE 0.791, PBLUC_R_SQUARED 0.696, read-out: LUCIFERASE INFECTION ASSAY - IC50): 1.04 µM
11 | CC1CCCC(N2CC(C(=O)Nc3nc(-c4ccccn4)cs3)CC2=O)C1C (configuration not stated) | 3.66 | IC50 (HEPG2TOX_HILL_SLOPE 6.97, HEPG2TOX_R_SQUARED 0.551, PBLUC_HILL_SLOPE 16.8, PBLUC_R_SQUARED 0.476, read-out: LUCIFERASE INFECTION ASSAY - IC50): 3.21 µM
12 | CCCCN1C(=O)/C(=C\c2ccc(O)c(OCC)c2)NC1=S | > 10 | IC50 (PBLUC_HILL_SLOPE 2.35, PBLUC_R_SQUARED 0.305, read-out: LUCIFERASE INFECTION ASSAY - IC50): 6.33 µM
13 | COc1ccc(/C=C2\CN(Cc3ccccc3)CC3(C=NN(CCO)C3c3ccc(OC)cc3)C2)cc1 (configuration not stated) | > 6.63 | IC50 [1]: > 6.63 µM
14 | COc1ccc(CN2C(=O)c3ccccc3C(C=NNc3nc(=O)cc(C)[nH]3)C2=O)cc1 (configuration not stated) | 3.8 | IC50 (HEPG2TOX_HILL_SLOPE 12.8, HEPG2TOX_R_SQUARED 0.611, PBLUC_HILL_SLOPE 3.06, PBLUC_R_SQUARED 0.688, read-out: LUCIFERASE INFECTION ASSAY - IC50): 1.85 µM
15 | c1ccc(-n2ncc3c(N4CCCC4c4ccc5c(c4)OCCO5)ncnc32)cc1 (configuration not stated) | > 10 | IC50 (HEPG2TOX_HILL_SLOPE 2.6, HEPG2TOX_R_SQUARED 0.193, PBLUC_HILL_SLOPE 3.44, PBLUC_R_SQUARED 0.735, read-out: LUCIFERASE INFECTION ASSAY - IC50): 7.29 µM
16 | COc1ccc(C(=O)Nc2ccc3nc(-c4ccccc4OC)nn3c2)cc1OC | > 10 | IC50 [1]: > 10 µM
17 | CCNC(=O)c1nn(Cc2ccccc2)c2c1CC(NCc1ccc(Cl)s1)CC2 (configuration not stated) | > 7.69 | IC50 (PBLUC_HILL_SLOPE 15.3, PBLUC_R_SQUARED 0.172, read-out: LUCIFERASE INFECTION ASSAY - IC50): 7.58 µM
18 | Cc1c(Cl)cccc1N=C(NS(=O)(=O)c1cccs1)c1ccccc1 | > 10 | IC50 [1]: > 10 µM
19 | CCC(Sc1ncnc2sc(C)c(C)c12)C(=O)Nc1cc(C)on1 (configuration not stated) | > 10 | IC50 (PBLUC_HILL_SLOPE 4.56, PBLUC_R_SQUARED 0.361, read-out: LUCIFERASE INFECTION ASSAY - IC50): 9.74 µM
20 | CCCCC1(COC(=O)c2ccc(C(C)(C)C)cc2)C(=O)N(c2ccccc2)N(c2ccccc2)C1=O | > 6.62 | IC50 (PBLUC_HILL_SLOPE 2.41, PBLUC_R_SQUARED 0.52, read-out: LUCIFERASE INFECTION ASSAY - IC50): 4.52 µM
21 | COCCn1cnc2c1c(=O)n(CC(=O)NC1(C#N)CCCCCC1)c(=O)n2CC(C)C | > 10 | IC50 [1]: > 10 µM

Row | SMILES | IC90 [µM] | further results
22 | C=S(NC(=O)c1ccc(Cl)cc1)c1sc(C(=O)OCC)c2c1C(=O)CCC2 (configuration not stated) | > 7.78 | IC50 (PBLUC_HILL_SLOPE 23.8, PBLUC_R_SQUARED 0.121, read-out: LUCIFERASE INFECTION ASSAY - IC50): > 7.78 µM
23 | Cc1ccc(-c2nnc(SCC(=O)N3N=C(c4ccc5ccccc5c4)CC3c3ccccc3)[nH]2)cc1 (configuration not stated) | > 10 | IC50 [1]: > 10 µM
24 | COc1cccc(-c2cnc(N)c(-c3ccc(O)c(OC)c3)c2)c1 | 7.28 | IC50 (FFLUC_HILL_SLOPE 0.591, FFLUC_R_SQUARED 0.281, PBLUC_HILL_SLOPE 3.73, PBLUC_R_SQUARED 0.478, read-out: LUCIFERASE INFECTION ASSAY - IC50): 4.04 µM
25 | CC(=O)Nc1ccc(-c2cnc3ccc(Cc4ccc(F)cc4)nn23)cc1 | 1.41 | IC50 (PBLUC_HILL_SLOPE 11.9, PBLUC_R_SQUARED 0.515, read-out: LUCIFERASE INFECTION ASSAY - IC50): 1.17 µM
26 | Nc1nc(CNC(c2ccccc2)c2ccc(Cl)cc2)nc(Nc2ccccc2)n1 (configuration not stated) | > 10 | IC50 (FFLUC_HILL_SLOPE 14.9, FFLUC_R_SQUARED 0.741, read-out: LUCIFERASE INFECTION ASSAY - IC50): > 10 µM
27 | C1=C(c2nc3ccccc3[nH]2)C(c2ccccc2)=NNC1c1ccccc1 (configuration not stated) | > 10 | IC50 [1]: 9.97 µM
28 | Cc1c(-c2ccccc2)nc2ccccc2c1C(=O)Nc1ccc2c(c1)OCCO2 | 6.7 | IC50 (FFLUC_HILL_SLOPE 1.33, FFLUC_R_SQUARED 0.515, PBLUC_HILL_SLOPE 1.27, PBLUC_R_SQUARED 0.667, read-out: LUCIFERASE INFECTION ASSAY - IC50): 1.19 µM
29 | O=S(=O)(c1ccc2oc(Nc3ccc(-c4nc5ccccc5[nH]4)cc3)nc2c1)N1CCOCC1 | 3.62 | IC50 (HEPG2TOX_HILL_SLOPE 1.96, HEPG2TOX_R_SQUARED 0.85, PBLUC_HILL_SLOPE 1.98, 8.82, PBLUC_R_SQUARED 0.398, 0.470, read-out: LUCIFERASE INFECTION ASSAY - IC50): 1.54 µM
30 | O=[N+]([O-])c1ccc(Oc2c(Cl)cc(S(=O)(=O)N3CCCCC3)cc2Cl)c(Cl)c1 | > 7.09 | IC50 (PBLUC_HILL_SLOPE 7.39, PBLUC_R_SQUARED 0.0349, read-out: LUCIFERASE INFECTION ASSAY - IC50): > 7.09 µM
31 | C=CCn1c(-c2ccccc2)cs/c1=N\Nc1ccc([N+](=O)[O-])cc1 | > 10 | IC50 (FFLUC_HILL_SLOPE 10.5, FFLUC_R_SQUARED 0.467, read-out: LUCIFERASE INFECTION ASSAY - IC50): > 10 µM
32 | CC(=O)Oc1ccc(-c2ccc(C(=O)OCC(=O)Nc3sccc3C(N)=O)cc2)cc1 | > 10 | IC50 (HEPG2TOX_HILL_SLOPE 11.3, HEPG2TOX_R_SQUARED 0.976, PBLUC_HILL_SLOPE 2.77, PBLUC_R_SQUARED 0.661, read-out: LUCIFERASE INFECTION ASSAY - IC50): 5.01 µM
33 | O=C(CSc1ccc(C(F)(F)F)cn1)Nc1cc(C(F)(F)F)cc(C(F)(F)F)c1 | > 7.36 | IC50 [1]: > 7.36 µM
34 | O=C(c1cc(-c2ccccc2)[nH]n1)N1CCN(S(=O)(=O)c2ccccc2)CC1 | > 10 | IC50 (PBLUC_HILL_SLOPE 0.361, PBLUC_R_SQUARED 0.34, read-out: LUCIFERASE INFECTION ASSAY - IC50): 1.07 µM
35 | Cc1nn(-c2ccccc2)c(C)c1C(=O)Nc1nc2c(s1)CCCC2 | 4.22 | IC50 (HEPG2TOX_HILL_SLOPE 2.86, HEPG2TOX_R_SQUARED 0.355, PBLUC_HILL_SLOPE 1.92, 0.823, PBLUC_R_SQUARED 0.870, 0.934, read-out: LUCIFERASE INFECTION ASSAY - IC50): 0.574 µM
36 | O=C(c1c[nH]c2ccccc12)N1CCC(Cc2ccccc2)CC1 | > 10.4 | IC50 [1]: > 10.4 µM
37 | COC(=O)c1c(C)[nH]c(-c2csc(N3CCCCC3)n2)c1C | > 10 | IC50 [1]: > 10 µM
38 | COc1ccccc1-c1nc2c3c(C)c(C)n(CCCO)c3ncn2n1 | > 9.39 | IC50 (PBLUC_HILL_SLOPE 14, PBLUC_R_SQUARED 0.452, read-out: LUCIFERASE INFECTION ASSAY - IC50): 8.69 µM
39 | CC(Sc1nnc(-c2cccs2)n1C(C)C1CC2CCC1C2)C(=O)N1CCCc2ccccc21 (configuration not stated) | > 10 | IC50 (FFLUC_HILL_SLOPE 9.01, FFLUC_R_SQUARED 0.23, read-out: LUCIFERASE INFECTION ASSAY - IC50): > 10 µM
40 | C=C1CC(=O)N(c2ccc(OC(F)(F)F)cc2)C1=O | > 12.2 | IC50 [1]: > 12.2 µM
41 | COc1ccc(OC)c(CCNc2nc3cnc(-c4ccc(OC)nc4)cc3n2C)c1 | 2.85 | IC50 (HEPG2TOX_HILL_SLOPE 1.95, HEPG2TOX_R_SQUARED 0.873, PBLUC_HILL_SLOPE 2.34, PBLUC_R_SQUARED 0.799, read-out: LUCIFERASE INFECTION ASSAY - IC50): 1.11 µM
